Data taken from the supplement of paper PMC8612539.
Converted amounts (≈) assume the structure as drawn.

Assays:
[1] = test system: Mannheimia haemolytica; test: minimum inhibitory concentration (MIC)
Protocol: (§1)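 Broth microdilution MIC (Sensititre BOPO7F bovine plate, CLSI methods) of 19 antimicrobials against field isolates of P. multocida, M. haemolytica, H. somni (deep nasopharyngeal swabs) and E. coli, Enterococcus spp. (rectal swabs) from weaned dairy heifers. Incubation 16-24 h at 35 C. MIC is the lowest concentration preventing visible growth. Values with <= or > lie at the tested range limits. Trimethoprim-sulfamethoxazole is given as the trimethoprim component of a 1:19 mixture.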

[2] = test system: Enterococcus spp.; test: minimum inhibitory concentration (MIC)
Protocol: as §1

CCC[C@@H]1C[C@@H](C(=O)N[C@@H]([C@H]2O[C@H](SC)[C@H](O)[C@@H](O)[C@H]2O)[C@H](C)Cl)N(C)C1 [Clindamycin]
minimum inhibitory concentration [mg/L]
Conditions | [1] | [2]
isolate (source animal id): 2 | – | ≤ 0.25
isolate (source animal id): 8 | 16 (≈ 37.6 µM) | –
isolate (source animal id): 13 | 16 (≈ 37.6 µM) | –
isolate (source animal id): 18 | 16 (≈ 37.6 µM) | –
isolate (source animal id): 21 | 16 (≈ 37.6 µM) | –
isolate (source animal id): 25 | > 16 | –
isolate (source animal id): 27 | 16 (≈ 37.6 µM) | –
isolate (source animal id): 28 | 16 (≈ 37.6 µM) | –
isolate (source animal id): 30 | 16 (≈ 37.6 µM) | –
isolate (source animal id): 31 | 16 (≈ 37.6 µM) | –
isolate (source animal id): 32 | 8 (≈ 18.8 µM) | –
isolate (source animal id): 34 | 16 (≈ 37.6 µM) | –
isolate (source animal id): 35 | – | > 16
isolate (source animal id): 36 | 16 (≈ 37.6 µM) | –
isolate (source animal id): 37 | 16 (≈ 37.6 µM) | –
isolate (source animal id): 40 | 8 (≈ 18.8 µM) | –
isolate (source animal id): 41 | 16 (≈ 37.6 µM) | –
isolate (source animal id): 42 | – | 16 (≈ 37.6 µM)
isolate (source animal id): 43 | 16 (≈ 37.6 µM) | –
isolate (source animal id): 44 | – | 16 (≈ 37.6 µM)
isolate (source animal id): 46 | 16 (≈ 37.6 µM) | –
isolate (source animal id): 49 | 16 (≈ 37.6 µM) | –
isolate (source animal id): 50 | 16 (≈ 37.6 µM) | –
isolate (source animal id): 51 | 16 (≈ 37.6 µM) | –
isolate (source animal id): 52 | 16 (≈ 37.6 µM) | –
isolate (source animal id): 53 | 8 (≈ 18.8 µM) | –
isolate (source animal id): 55 | 8 (≈ 18.8 µM) | –
isolate (source animal id): 56 | 16 (≈ 37.6 µM) | –
isolate (source animal id): 57 | > 16 | –
isolate (source animal id): 79 | – | 16 (≈ 37.6 µM)
isolate (source animal id): 88 | – | ≤ 0.25
isolate (source animal id): 91 | – | ≤ 0.25
isolate (source animal id): 92 | – | 2 (≈ 4.71 µM)
isolate (source animal id): 100 | 16 (≈ 37.6 µM) | –
isolate (source animal id): 103 | 16 (≈ 37.6 µM) | –
isolate (source animal id): 107 | 16 (≈ 37.6 µM) | –
isolate (source animal id): 108 | 16 (≈ 37.6 µM) | –
isolate (source animal id): 111 | – | ≤ 0.25
isolate (source animal id): 112 | > 16 | –
isolate (source animal id): 113 | > 16 | –
isolate (source animal id): 121 | > 16 | –
isolate (source animal id): 122 | 16 (≈ 37.6 µM) | > 16
isolate (source animal id): 123 | > 16 | 8 (≈ 18.8 µM)
isolate (source animal id): 126 | > 16 | –
isolate (source animal id): 133 | > 16 | ≤ 0.25
isolate (source animal id): 135 | > 16 | –
isolate (source animal id): 138 | > 16 | –
isolate (source animal id): 141 | > 16 | –
isolate (source animal id): 142 | > 16 | –
isolate (source animal id): 145 | 8 (≈ 18.8 µM) | –
isolate (source animal id): 149 | 8 (≈ 18.8 µM) | –
isolate (source animal id): 151 | 8 (≈ 18.8 µM) | –
isolate (source animal id): 152 | 16 (≈ 37.6 µM) | –
isolate (source animal id): 154 | 8 (≈ 18.8 µM) | –
isolate (source animal id): 158 | – | > 16
isolate (source animal id): 159 | > 16 | –
isolate (source animal id): 162 | > 16 | –
isolate (source animal id): 168 | – | ≤ 0.25
isolate (source animal id): 169 | – | ≤ 0.25
isolate (source animal id): 170 | 16 (≈ 37.6 µM) | –
isolate (source animal id): 171 | 8 (≈ 18.8 µM) | 16 (≈ 37.6 µM)
isolate (source animal id): 172 | 16 (≈ 37.6 µM) | –
isolate (source animal id): 173 | 16 (≈ 37.6 µM) | –
isolate (source animal id): 175 | – | > 16
isolate (source animal id): 177 | – | 16 (≈ 37.6 µM)
isolate (source animal id): 179 | 8 (≈ 18.8 µM) | –
isolate (source animal id): 180 | 16 (≈ 37.6 µM) | –
isolate (source animal id): 181 | – | ≤ 0.25
isolate (source animal id): 182 | – | ≤ 0.25
isolate (source animal id): 183 | 16 (≈ 37.6 µM) | 16 (≈ 37.6 µM)
isolate (source animal id): 186 | 8 (≈ 18.8 µM) | –
isolate (source animal id): 187 | 16 (≈ 37.6 µM) | ≤ 0.25
isolate (source animal id): 188 | 16 (≈ 37.6 µM) | –
isolate (source animal id): 190 | 16 (≈ 37.6 µM) | ≤ 0.25
isolate (source animal id): 191 | 16 (≈ 37.6 µM) | –
isolate (source animal id): 192 | 8 (≈ 18.8 µM) | –
isolate (source animal id): 194 | – | 16 (≈ 37.6 µM)
isolate (source animal id): 195 | – | ≤ 0.25
isolate (source animal id): 197 | – | 0.5 (≈ 1.18 µM)
isolate (source animal id): 201 | 16 (≈ 37.6 µM) | –
isolate (source animal id): 202 | 8 (≈ 18.8 µM) | –
isolate (source animal id): 209 | 16 (≈ 37.6 µM) | –
isolate (source animal id): 211 | 16 (≈ 37.6 µM) | ≤ 0.25
isolate (source animal id): 214 | – | 2 (≈ 4.71 µM)
isolate (source animal id): 220 | 16 (≈ 37.6 µM) | –
isolate (source animal id): 221 | 16 (≈ 37.6 µM) | –
isolate (source animal id): 222 | – | 16 (≈ 37.6 µM)
isolate (source animal id): 223 | 8 (≈ 18.8 µM) | 8 (≈ 18.8 µM)
isolate (source animal id): 228 | – | 2 (≈ 4.71 µM)
isolate (source animal id): 230 | – | 2 (≈ 4.71 µM)
isolate (source animal id): 233 | 16 (≈ 37.6 µM) | –
isolate (source animal id): 235 | – | > 16
isolate (source animal id): 236 | – | 8 (≈ 18.8 µM)
isolate (source animal id): 237 | 16 (≈ 37.6 µM) | –
isolate (source animal id): 239 | – | ≤ 0.25
isolate (source animal id): 241 | 16 (≈ 37.6 µM) | > 16
isolate (source animal id): 244 | – | 16 (≈ 37.6 µM)
isolate (source animal id): 246 | – | 16 (≈ 37.6 µM)
isolate (source animal id): 247 | – | > 16
isolate (source animal id): 250 | – | 16 (≈ 37.6 µM)
isolate (source animal id): 252 | 16 (≈ 37.6 µM) | > 16
isolate (source animal id): 253 | 16 (≈ 37.6 µM) | –
isolate (source animal id): 259 | > 16 | –
isolate (source animal id): 260 | 16 (≈ 37.6 µM) | –
isolate (source animal id): 262 | 16 (≈ 37.6 µM) | –
isolate (source animal id): 268 | – | > 16
isolate (source animal id): 282 | > 16 | 4 (≈ 9.41 µM)
isolate (source animal id): 285 | – | > 16
isolate (source animal id): 287 | > 16 | –
isolate (source animal id): 288 | 16 (≈ 37.6 µM) | –
isolate (source animal id): 289 | – | 8 (≈ 18.8 µM)
isolate (source animal id): 290 | – | 16 (≈ 37.6 µM)
isolate (source animal id): 291 | 16 (≈ 37.6 µM) | –
isolate (source animal id): 293 | > 16 | –
isolate (source animal id): 296 | – | 16 (≈ 37.6 µM)
isolate (source animal id): 298 | > 16 | ≤ 0.25
isolate (source animal id): 299 | > 16 | –
isolate (source animal id): 300 | 8 (≈ 18.8 µM) | –
isolate (source animal id): 301 | – | 0.5 (≈ 1.18 µM)
isolate (source animal id): 302 | > 16 | –
isolate (source animal id): 304 | > 16 | –
isolate (source animal id): 306 | 16 (≈ 37.6 µM) | –
isolate (source animal id): 308 | 16 (≈ 37.6 µM) | –
isolate (source animal id): 309 | 16 (≈ 37.6 µM) | –
isolate (source animal id): 310 | – | > 16
isolate (source animal id): 313 | 16 (≈ 37.6 µM) | –
isolate (source animal id): 318 | 8 (≈ 18.8 µM) | –
isolate (source animal id): 320 | 16 (≈ 37.6 µM) | 4 (≈ 9.41 µM)
isolate (source animal id): 321 | 16 (≈ 37.6 µM) | –
isolate (source animal id): 323 | > 16 | –
isolate (source animal id): 324 | 16 (≈ 37.6 µM) | –
isolate (source animal id): 326 | > 16 | –
isolate (source animal id): 328 | 16 (≈ 37.6 µM) | –
isolate (source animal id): 329 | 16 (≈ 37.6 µM) | –
isolate (source animal id): 331 | – | 8 (≈ 18.8 µM)
isolate (source animal id): 333 | 16 (≈ 37.6 µM) | 16 (≈ 37.6 µM)
isolate (source animal id): 335 | 16 (≈ 37.6 µM) | –
isolate (source animal id): 338 | 16 (≈ 37.6 µM) | –
isolate (source animal id): 341 | – | > 16
